This passage reports IC50 results from patent EP4722213A1, “NITROGEN-CONTAINING FUNCTIONAL GROUP-SUBSTITUTED PYRIDAZINOPYRIDONE DERIVATIVE AND USE THEREOF” (Sichuan Huiyu Pharmaceutical Co., Ltd., priority 2023, dated 2024).

Molecules are shown by their SMILES. Structures can show the parent of a compound that is named as a salt.

Broadly, the IC50 is the concentration that inhibits the measured activity by half. High values mean lower potency, low ones higher potency.

The assay concerns the target T1, SOS1 (Homo sapiens, UniProt Q07889).
T1 sequence (Q07889 1-1333): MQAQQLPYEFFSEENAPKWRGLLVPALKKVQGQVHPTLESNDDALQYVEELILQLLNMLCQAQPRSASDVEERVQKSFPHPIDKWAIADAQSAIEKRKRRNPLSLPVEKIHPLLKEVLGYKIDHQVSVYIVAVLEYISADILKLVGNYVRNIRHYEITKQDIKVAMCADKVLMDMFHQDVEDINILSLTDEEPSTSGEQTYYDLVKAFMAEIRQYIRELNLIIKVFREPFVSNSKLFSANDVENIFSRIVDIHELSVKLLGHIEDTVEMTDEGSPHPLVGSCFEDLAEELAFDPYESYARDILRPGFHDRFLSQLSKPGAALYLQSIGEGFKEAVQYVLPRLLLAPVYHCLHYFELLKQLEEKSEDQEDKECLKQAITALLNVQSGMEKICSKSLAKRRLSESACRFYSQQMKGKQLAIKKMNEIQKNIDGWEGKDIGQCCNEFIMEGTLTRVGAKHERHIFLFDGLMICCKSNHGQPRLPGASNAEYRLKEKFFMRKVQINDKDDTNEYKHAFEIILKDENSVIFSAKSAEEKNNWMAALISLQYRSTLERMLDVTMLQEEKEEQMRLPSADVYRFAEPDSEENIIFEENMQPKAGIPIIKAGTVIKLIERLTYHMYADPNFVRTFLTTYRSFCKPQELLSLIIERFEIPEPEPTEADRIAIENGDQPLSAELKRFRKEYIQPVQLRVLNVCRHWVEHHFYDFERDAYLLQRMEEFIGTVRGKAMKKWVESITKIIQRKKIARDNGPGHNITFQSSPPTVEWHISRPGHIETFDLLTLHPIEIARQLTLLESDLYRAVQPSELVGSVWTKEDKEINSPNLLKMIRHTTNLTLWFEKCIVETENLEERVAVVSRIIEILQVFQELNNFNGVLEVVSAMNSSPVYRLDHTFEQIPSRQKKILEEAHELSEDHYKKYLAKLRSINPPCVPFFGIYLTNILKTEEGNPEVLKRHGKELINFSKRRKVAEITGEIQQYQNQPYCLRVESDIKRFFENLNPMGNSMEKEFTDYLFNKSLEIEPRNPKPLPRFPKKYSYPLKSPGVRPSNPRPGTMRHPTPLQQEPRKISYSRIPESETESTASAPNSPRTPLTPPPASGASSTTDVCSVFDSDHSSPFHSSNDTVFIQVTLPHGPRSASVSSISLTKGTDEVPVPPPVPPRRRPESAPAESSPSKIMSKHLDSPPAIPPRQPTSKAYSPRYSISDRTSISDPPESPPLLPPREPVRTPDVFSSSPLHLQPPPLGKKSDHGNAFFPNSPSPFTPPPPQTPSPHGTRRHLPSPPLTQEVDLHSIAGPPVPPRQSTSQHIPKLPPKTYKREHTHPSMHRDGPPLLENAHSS
Put plainly: biochemical.
For `CC(C)N1CCN(c2nnc(N[C@H](C)c3cccc(C(F)(F)F)c3F)c3cn(C4(C)CC4)c(=O)cc23)CC1` [Example 169, (R)-4-((1-(2-fluoro-3-(trifluoromethyl)phenyl)ethyl)amino)-1-(4-isopropylpiperazin-1-yl)-6-(1-methylcyclopropyl) pyrido[3,4-d]pyridazin-7(6H)-one], the IC50 was 4.7 nM.

Take `Cc1c(C#N)cccc1[C@@H](C)Nc1nnc(N2CC[C@H](CO)C2)c2cc(=O)n(N3CC4CCCC4C3)cc12` (stereo partly drawn) [Example 166, 3-((1R)-1-((6-(hexahydrocyclopenta[c]pyrrol-2(1H)-yl)-1-((S)-3-(hydroxymethyl)pyrrolidin-1-yl)-7-oxo-6,7-dihydropyrido[3,4-d]pyridazin-4-yl)amino)ethyl)-2-methylbenzonitrile]: the half-maximal inhibitory concentration (IC50) worked out at 9.7 nM.

`Cc1c([C@@H](C)Nc2nnc(N3CCS(=O)(=O)CC3)c3cc(=O)n(C4(C)CC4)cc23)cccc1C(F)(F)F` [Example 68, (R)-1-(1,1-dioxidothiomorpholino)-4-((1-(2-methyl-3-(trifluoromethyl)phenyl)ethyl)amino)-6-(1-methylcyclopropyl) pyrido[3,4-d]pyridazin-7(6H)-one] had an IC50 of 18.9 nM. Compared with the last compound, the IC50 is about 1.9-fold higher.

Regarding `CCN1CCN(c2nnc(N[C@H](C)c3cc(N)cc(C)c3F)c3cn(C4CC4)c(=O)cc23)CC1` [Example 144, (R)-4-((1-(5-amino-2-fluoro-3-methylphenyl)ethyl)amino)-6-cyclopropyl-1-(4-ethylpiperazin-1-yl)pyrido[3,4-d]pyridazin-7(6H)-one formate], inhibition was half-maximal at 6.7 nM (IC50).

For `C[C@@H](Nc1nnc(N2CCN(C)C(=O)C2)c2cc(=O)n(C3(C)CC3)cc12)c1cccc(C(F)(F)F)c1F` [Example 174, (R)-4-((1-(2-fluoro-3-(trifluoromethyl)phenyl)ethyl)amino)-1-(4-methyl-3-oxopiperazin-1-yl)-6-(1-methylcyclopropyl) pyrido[3,4-d]pyridazin-7(6H)-one], the IC50 amounted to 20.2 nM. Compared with the last compound, the IC50 is about 3-fold higher.

Compound `CCN1CCN(c2nnc(N[C@H](C)c3cccc(C(F)F)c3F)c3cn(CC)c(=O)cc23)CC1` [Example 117, (R)-4-((1-(3-(difluoromethyl)-2-fluorophenyl)ethyl)amino)-6-ethyl-1-(4-ethylpiperazin-1-yl)pyrido[3,4-d]pyridazin-7(6H)-one] returned an IC50 of 8.2 nM.

As for `C[C@@H](Nc1nnc(N2CCN(C)CC2)c2cc(=O)n(C3(C)CC3)cc12)c1cccc2c1CCC2(F)F` [Example 208, (R)-4-((1-(1,1-difluoro-2,3-dihydro-1H-inden-4-yl)ethyl)amino)-6-(1-methylcyclopropyl)-1-(4-methylpiperazin-1-yl)pyrido[3,4-d]pyridazin-7(6H)-one], the IC50 is 4.5 nM. Compared with the last compound, the IC50 is about 1.8-fold lower.

In the case of `CCN1CCN(c2nnc(N[C@H](C)c3cccc(C#N)c3C)c3cn(C)c(=O)cc23)CC1` [Example 145, (R)-3-(1-((1-(4-ethylpiperazin-1-yl)-6-methyl-7-oxo-6,7-dihydropyrido[3,4-d]pyridazin-4-yl)amino)ethyl)-2-methylbenzonitrile formate], the IC50 was determined as 7.8 nM. Against the preceding compound, the IC50 is about 1.7-fold higher.

Turning to `Cc1c(C(F)F)cccc1[C@@H](C)Nc1nnc(N2CCN(C)CC2)c2cc(=O)n(C3(C)CC3)cc12` [Example 213, (R)-4-((1-(3-(difluoromethyl)-2-methylphenyl)ethyl)amino)-6-(1-methylcyclopropyl)-1-(4-methylpiperazin-1-yl)pyrido[3,4-d]pyridazin-7(6H)-one formate], it took 6.2 nM to reach half-maximal inhibition (IC50).

For `C[C@@H](Nc1nnc(N2CCN(C3CC3)CC2)c2cc(=O)n(C3(C)CC3)cc12)c1cccc(C(F)(F)F)c1F` [Example 170, (R)-4-((1-(2-fluoro-3-(trifluoromethyl)phenyl)ethyl)amino)-1-(4-cyclopropylpiperazin-1-yl)-6-(1-methylcyclopropyl) pyrido[3,4-d]pyridazin-7(6H)-one], 6.7 nM corresponded to half-maximal inhibition (IC50).

As for `Cc1c(C#N)cccc1[C@@H](C)Nc1nnc(N2CC3CC3C2)c2cc(=O)n(C3CC3)cc12` (stereo partly drawn) [Example 35, 3-((1R)-1-((1-(3-azabicyclo[3.1.0]hexan-3-yl)-6-cyclopropyl-7-oxo-6,7-dihydropyrido[3,4-d]pyridazin-4-yl)amino)ethyl)-2-methylbenzonitrile], the IC50 turned out to be 14.8 nM.

`Cc1c(C#N)cccc1[C@@H](C)Nc1nnc(N2CC(F)(F)C2)c2cc(=O)n(C3(C)CC3)cc12` [Example 48, (R)-3-(1-((1-(3,3-difluoroazetidin-1-yl)-6-(1-methylcyclopropyl)-7-oxo-6,7-dihydropyrido[3,4-d]pyridazin-4-yl)amino)ethyl)-2-methylbenzonitrile] yielded an IC50 of 46.5 nM.

In turn, `C[C@@H](Nc1nnc(N2CCN(C3CC3)CC2)c2cc(=O)n(C3(C)CC3)cc12)c1cccc(C(F)F)c1F` [Example 218, (R)-1-(4-cyclopropylpiperazin-1-yl)-4-((1-(3-(difluoromethyl)-2-fluorophenyl)ethyl)amino)-6-(1-methylcyclopropyl) pyrido[3,4-d]pyridazin-7(6H)-one] yielded a 50% inhibitory concentration (IC50) of 6 nM.

For the compound `Cc1c([C@@H](C)Nc2nnc(N(C)C)c3cc(=O)n(C4(C)CC4)cc23)cccc1C(F)(F)F` [Example 64, (R)-1-(dimethylamino)-4-((1-(2-methyl-3-(trifluoromethyl)phenyl)ethyl)amino)-6-(1-methylcyclopropyl) pyrido[3,4-d]pyridazin-7(6H)-one], it took 10.7 nM to reach half-maximal inhibition (IC50). This IC50 lies about 1.8-fold higher than the previous one.

With `C[C@@H](Nc1nnc(N2CCS(=O)(=O)CC2)c2cc(=O)n(C3CC3)cc12)c1cccc(C(F)F)c1F` [Example 24, (R)-6-cyclopropyl-4-((1-(3-(difluoromethyl)-2-fluorophenyl)ethyl)amino)-1-(1,1-dioxidothiomorpholino)pyrido[3,4-d]pyridazin-7(6H)-one], inhibition was half-maximal at 12.7 nM (IC50).

On to `C[C@@H](Nc1nnc(NC23CC(C2)C3)c2cc(=O)n(C3(C)CC3)cc12)c1cccc(C(F)F)c1F` [Example 125, (R)-1-(bicyclo[1.1.1]pentan-1-ylamino)-4-((1-(3-(difluoromethyl)-2-fluorophenyl)ethyl)amino)-6-(1-methylcyclopropyl) pyrido[3,4-d]pyridazin-7(6H)-one], for which the IC50 is 14.1 nM. The IC50 values of the last two compounds are within 1.5-fold of each other.

The compound `C[C@@H](Nc1nnc(N2CCCCC2)c2cc(=O)n(C3(C)CC3)cc12)c1cccc(C(F)F)c1F` [Example 6, (R)-4-((1-(3-(difluoromethyl)-2-fluorophenyl)ethyl)amino)-6-(1-methylcyclopropyl)-1-(piperidin-1-yl)pyrido[3,4-d]pyridazin-7(6H)-one] displayed an IC50 of 14.8 nM.

In turn, `CCN(C)c1nnc(N[C@H](C)c2cccc(C(F)F)c2F)c2cn(C3(C)CC3)c(=O)cc12` [Example 122, (R)-4-((1-(3-(difluoromethyl)-2-fluorophenyl)ethyl)amino)-1-(ethyl(methyl)amino)-6-(1-methylcyclopropyl) pyrido[3,4-d]pyridazin-7(6H)-one] registered an IC50 of 10.6 nM.

On to `C[C@@H](Nc1nnc(N2CCOCC2)c2cc(=O)n(C3(C)CC3)cc12)c1cccc(C(F)F)c1F` [Example 7, (R)-4-((1-(3-(difluoromethyl)-2-fluorophenyl)ethyl)amino)-6-(1-methylcyclopropyl)-1-morpholinopyrido[3 ,4-d]pyridazin-7(6H)-one], for which it took 17.7 nM to reach half-maximal inhibition (IC50).

With `C[C@@H](Nc1nnc(N(C)C)c2cc(=O)n(C3CC3)cc12)c1cccc(C(F)F)c1F` [Example 76, (R)-6-cyclopropyl-4-((1-(3-(difluoromethyl)-2-fluorophenyl)ethyl)amino)-1-(dimethylamino) pyrido[3,4-d]pyridazin-7(6H)-one], the IC50 was found to be 9.2 nM.

The compound `Cc1c(C#N)cccc1[C@@H](C)Nc1nnc(N2CCN(C)CC2)c2cc(=O)n(N3CC4CCCC4C3)cc12` (stereo partly drawn) [Example 150, 3-((1R)-1-((6-(hexahydrocyclopenta[c]pyrrol-2(1H)-yl)-1-(4-methylpiperazin-1-yl)-7-oxo-6,7-dihydropyrido[3,4-d]pyridazin-4-yl)amino)ethyl)-2-methylbenzonitrile] returned an IC50 of 5.5 nM.

Regarding `C[C@@H](Nc1nnc(N2CCN(C)[C@@H](C)C2)c2cc(=O)n(C3(C)CC3)cc12)c1cccc(C(F)(F)F)c1` [Example 180, 1-((S)-3,4-dimethylpiperazin-1-yl)-6-(1-methylcyclopropyl)-4-(((R)-1-(3-(trifluoromethyl)phenyl)ethyl)amino)pyr ido[3,4-d]pyridazin-7(6H)-one formate], 7.2 nM corresponded to half-maximal inhibition (IC50).
